Where a SMILES comes first, the peptide text is derived from it.
Columns and labels:
SH-SY5Y cells [1] = test: Global DNA methylation by MBD-seq; type: cell-based, human; conditions: after BCM-7 exposure
Experimental: (§1) The changes in SAM/SAH could potentially affect global DNA methylation, influencing the genes involved in various functions. The global DNA methylation levels induced by BCM-7 were investigated using methyl-CpG binding domain (MBD) protein-enriched genome sequencing (MBD-seq) as described previously (Trivedi M., et al., Mol. Pharm. 2014), whereas mRNA translation microarray data was obtained using Agilent V3 microarray chip, from non-treated control SH-SY5Y cells and cells treated for 4 hours with 1 μM BCM-7.
Briefly, genomic DNA was extracted from samples with the Easy DNA kit (Invitrogen K1800-01) using the appropriate protocol for cell lines. Fragmentation was performed on Covaris S2 with the following settings: duty cycle 10%, intensity 5, 200 cycles per burst during 200 sec. Fragments were obtained having an average length of 200 bp. […] DNA with an input from 5-3 3 μg was analysed on the Agilent 2100 using a DNA 1000 chip. […] The concentrations of fragmented and captured DNA were determined on a Fluostar Optima plate reader with the Quant-IT PicoGreen dsDNA Assay Kit (Invitrogen P7589) at 480/520 nm. […]
The Illumina library amplification index protocol was used with the following alterations: 22 μl DNA was used and performed 21 cycles run. […] 1 μl was applied to a Agilent 2100 HS DNA chip and the concentration was determined by smear analysis on the Agilent 2100. […]

SH-SY5Y neuronal cells = test: Intracellular cysteine, GSH and methylation metabolites by HPLC; type: cell-based, human
Experimental: Briefly, SH-SY5Y neuronal cells were grown to confluence in α-MEM. Media was aspirated and the cells were washed twice with 1 mL of ice cold HBSS. HBSS was aspirated and 0.6 mL ice cold dH2O was added to the cells. The cells were scraped from the flask/dish and suspended in dH2O. The cell suspension was sonicated for 15 s on ice and 100 μL of the suspension was used to determine the protein content. The remaining lysate was added to a microcentrifuge tube and an equal volume of 0.4 N perchloric acid was added, followed by incubation on ice for 5 min. Samples were centrifuged at 5,000×g and the supernatant transferred to new microcentrifuge tubes. 100 μL of sample was added to a conical micro-autosampler vial and kept at 4° C. in the autosampler cooling tray. 10 μL of this sample was injected into the HPLC system.
The separation of redox and methylation pathway metabolites was accomplished using an Agilent Eclipse XDB-C8 analytical column (3×150 mm; 3.5 μm) and an Agilent Eclipse XDB-C8 (4.6×12.5 mm; 5 μm) guard column. Two mobile phases were used: Mobile Phase A was 0% acetonitrile, 25 mM sodium phosphate, 1.4 mM 1-octanesulfonic acid, adjusted to pH 2.65 with phosphoric acid. Mobile Phase B was 50% acetonitrile. The flow rate was initially set at 0.6 mL/min and a step gradient was used: 0-9 min 0% B, 9-19 min 50% B, 19-30 min 50% B. The column was then equilibrated with 5% B for 12 min prior to the next run. Temperature was maintained at 27° C. The electrochemical detector was an ESA CoulArray with BDD Analytical cell Model 5040 and the operating potential was set at 1500 mV. Sample concentrations were determined from the peak areas of metabolites using standard calibration curves and ESA-supplied HPLC software. Sample concentrations were normalised against protein content. In some cases samples were diluted in mobile phase as needed or up to 50 μl of sample was injected to assure that thiol levels were within the range of the standard curve.

[2] = tested on: Caco-2 Gut epithelial cells; conditions: read-out: IC50 inhibition of cysteine uptake; GI epithelial cells
Experimental: (§2) Pre-treatment in cells was performed for different time points for 30 min, 4, 24 and 48 h as described previously (Trivedi M., et al.; Mol. Pharm., 2014). Briefly, SH-SY5Y human neuronal cells and Caco-2 Gut epithelial cells were plated in six-well plates and were pretreated with drugs and incubated for various times prior to measuring uptake. Media were aspirated and cells were washed with 600 μL of HBSS at 37° C. Non-radioactive HBSS was aspirated, replaced with 600 μL of 37° C. HBSS containing [^35S]-cysteine, (1 μCi/1 mL), 10 μM unlabelled cysteine and 100 μM DTT, and the cells were incubated for 5 min. The [^35S]-cysteine/HBSS mixture was aspirated and treatment was terminated by two washes with ice-cold HBSS. Cells were then lysed with 600 μL of dH2O, scraped, collected in 1.5 mL microcentrifuge tubes, and sonicated for 10 s. 100 μL of each sample was aliquoted for protein assay. 200 μL of each sample (in triplicate) was aliquoted into scintillation vials with 4 mL of scintillation fluid, vortexed, and counted for radioactivity, normalized against protein content. […] Each * symbol in these Figures indicates a statistically significant difference (p<0.05) compared against the untreated control, and each #symbol indicates a statistically significant difference (p<0.005) compared against the untreated control.

[3] = tested on: SH-SY5Y human neuronal cells
Experimental: as §2

SH-SY5Y cells [4] = test: Whole genome mRNA microarray; type: cell-based, human; conditions: FDR<0.1; for differentially expressed transcripts (DETs): cells treated for 4 hours
Experimental: as §1
For whole genome microarray hybridisations, 500 ng of total RNA from each sample was labelled with fluorescent dye (Cy3; Amersham Biosciences Corp, Piscataway, NJ) using the Low RNA Input Linear Amplification Labelling kit (Agilent Technologies, Palo Alto, CA) following the manufacturer's protocol. The amount and quality of the fluorescently labelled cRNA was assessed using a NanoDrop ND-1000 spectrophotometer and an Agilent Bioanalyzer. According to manufacturer's specifications, […] of Cy3-labeled cRNA was hybridized to the Agilent Human Whole Genome Oligo Microarray (Agilent Technologies, Inc., Palo Alto, CA) for 17 hrs prior to washing and scanning. Data was extracted from scanned images using Feature Extraction Software (Agilent Technologies, Inc., Palo Alto, CA).
Transcripts included both genes and non-coding RNAs that were differentially methylated/transcribed.

[5] = tested on: jejunum myeloperoxidase (MPO) activity; test: Jejunum MPO activity in rats fed A1/A2 diets; type: in vivo, Wistar rats; conditions: on consumption of beta-casein A1
Experimental: (§3) Seventy two weaned (four week old) male Wistar rats were used. Following a 7-day acclimatisation period on a control diet, the rats were fed for either 12 or 60 hours with one of three diets: 100% A1 diet, 100% A2 diet, control diet (n=6 per treatment). The protein component of the diets were derived from skim milk (for the A1 and A2 diets) and on egg white (for the non-milk protein control diet), and were balanced for energy and macronutrient composition (see Table 1). Fifteen minutes before the end of the time period, rats received either naloxone or saline (control) via intra-peritoneal injection, and were then orally gavaged with a non-digestible tracer, titanium dioxide. Faecal and urine samples were collected at 7 time points over the following 24 hours, and stored at −20° C. (faecal) or −80° C. (urine) until they were analysed.
(§4) Colon tissue from the rats fed according to Example 1 was quantified for myeloperoxidase (MPO) activity based on an established method (Grisham, M. B., et al., Methods Enzymol., 1990, 186:729-742). Colon tissue (50 mg) was homogenised, partitioned via centrifugation, ruptured by ultrasonic probe and subjected to a freeze-thaw cycle. Endogenous MPO catalyses H2O2-dependent oxidation of 3,3′,5,5′-tetramethyl-benzidine substrate measured colourimetrically at 562 nm. […]
In this example, tissue samples taken from the jejunum were analysed. […]

[6] = tested on: colon myeloperoxidase (MPO) activity; test: Colon MPO activity in rats fed A1/A2 diets; type: in vivo, Wistar rats
Experimental: as §3, §4

colon tissue = test: Intestinal histology of colon sections; type: in vivo, Wistar rats; conditions: 60 hour naloxone group, A2-fed versus A1-fed rats, P<0.05
Experimental: as §3
The procedure used for measuring change in morphology in the gastrointestinal tract of rats is based on histological evaluation of haemoxylin and eosin stained tissue sections under a light microscope (Knoch, B. et al., J. Nutrigenet. Nutrigenomics, 2009, 2(1):9-28 and Barnett, M. P., BMC Immunol., 2010, 11:39). This method was applied to sections derived from colon tissue of rats fed either the 100% A1 or 100% A2 diets to determine the effects of the beta-casein variants on intestinal inflammation.

[7] = neuronal cells, 30 min, 4 h, 24 h

Molecule: CC[C@H](C)[C@H](NC(=O)[C@@H]1CCCN1C(=O)CNC(=O)[C@@H]1CCCN1C(=O)[C@H](Cc1ccccc1)NC(=O)[C@@H]1CCCN1C(=O)[C@@H](N)Cc1ccc(O)cc1)C(=O)O [BCM-7, beta-casomorphin-7] (H-YPFPGPI-OH; N-terminus and C-terminus assumed)
- epigenetic status (DNA methylation) of cytokines such as NFkappaB and interleukins such as IL1 (SH-SY5Y cells [1]): altered
- epigenetic status of the MPO gene (SH-SY5Y cells [1]): alters the epigenetic status
- ratio of SAM/SAH (methylation capacity) (SH-SY5Y neuronal cells; different time points): affected
- GSH levels (SH-SY5Y neuronal cells; [7]): time-dependent decreases
- cysteine levels (SH-SY5Y neuronal cells; [7]): time-dependent decreases
- GSH/GSSG ratio (redox status) (SH-SY5Y neuronal cells; neuronal cells, over time): decreased
- IC50 [2]: 15.9 nM
- receptor mediation of cysteine uptake inhibition ([3]; blockade by selective μ-antagonist (CTAP), not by delta antagonist (NTI)): μ-opioid receptor mediated
- time at which inhibition of cysteine uptake was fully developed ([3]; neuronal cells and GI epithelial cells (FIG. 6)): 30 min
- IC50 ([3]; read-out: IC50 inhibition of cysteine uptake, neuronal cells): 1.31 nM
- DETs shared by both morphine and BCM-7 (SH-SY5Y cells [4]): 501
- differentially expressed transcripts (DETs) (SH-SY5Y cells [4]): 1,467

Molecule: CN1CC[C@]23c4c5ccc(O)c4O[C@H]2[C@@H](O)C=C[C@H]3[C@H]1C5 [morphine]
- cysteine levels (SH-SY5Y neuronal cells; [7]): time-dependent decreases
- DETs shared by both morphine and BCM-7 (SH-SY5Y cells [4]): 501
- differentially expressed transcripts (DETs) (SH-SY5Y cells [4]): 7,592

B1: beta-casein A1 (protein, UniProt P02666 16-224, looked up, variant P67H)
Beta-casein: RELEELNVPGEIVESLSSSEESITRINKKIEKFQSEEQQQTEDELQDKIHPFAQTQSLVYPFPGPIHNSLPQNIPPLTQTPVVVPPFLQPEVMGVSKVKEAMAPKHKEMPFPKYPVEPFTESQSLTLTDVENLHLPLPLLQSWMHQPHQPLPPTVMFPPQSVLSLSQSKVLPVPQKAVPYPQRDMPIQAFLLYQEPVLGPVRGPFPIIV
- inflammation in the small intestine (jejunum MPO) [5]: no observable increase
- colon MPO activity ([6]; beta-casein A1-fed rats compared to beta-casein A2-fed rats): increased
- effect on colon MPO activity in rats treated with naloxone ([6]; rats treated with naloxone): not observed

B2: beta-casein A2 (protein, UniProt P02666 16-224, looked up)
Beta-casein: RELEELNVPGEIVESLSSSEESITRINKKIEKFQSEEQQQTEDELQDKIHPFAQTQSLVYPFPGPIPNSLPQNIPPLTQTPVVVPPFLQPEVMGVSKVKEAMAPKHKEMPFPKYPVEPFTESQSLTLTDVENLHLPLPLLQSWMHQPHQPLPPTVMFPPQSVLSLSQSKVLPVPQKAVPYPQRDMPIQAFLLYQEPVLGPVRGPFPIIV
notes: any beta-casein having proline at position 67
- histology score (colon tissue): significantly higher score

Reference: US11911439B2, “Beta-casein A2 and prevention of inflammation of the bowel” (THE A2 MILK COMPANY LIMITED, priority 2013, dated 2024)
